From US7271274B2, “Phenolic antioxidants for the treatment of disorders including arthritis, asthma and coronary artery disease” (AhteroGenics, Inc., priority 2004, dated 2007)
pIC50: −log10 of the molar value.

How the values were obtained:
[1] = tested on: VCAM-1; test: In Vitro VCAM-1 Assay - Method 1 (TNF-α stimulated endothelial cells, surface VCAM-1 ELISA); format: cell-based; conditions: Homo sapiens, Endothelial cell; HAEC or HPAEC, TNF-α 1 ng/ml with compound approximately 16 hours
Description: Cell Culture and compound dosing: Cultured primary human aortic (HAEC) or pulmonary (HPAEC) endothelial cells were obtained from Clonetics, Inc., and were used below passage 9. Cells were seeded in 96 well plates such that they would reach 90–95% confluency by the following day. On the following day the cells were stimulated with TNF-α (1 ng/ml) in the presence or absence of compounds dissolved in DMSO such that the final concentration of DMSO is 0.25% or less. To establish a dose curve for each compound, four concentrations in 2- to 5-fold increments were used. Cells were exposed to TNF-α and compounds for approximately 16 hours. The next day the cells were examined under microscope to score for visual signs of toxicity or cell stress.
Following 16 hr exposure to TNF-α and compound the media was discarded and the cells were washed once with Hanks Balanced Salt Solution (HBSS)/Phosphate buffered saline (PBS) (1:1). Primary antibodies against VCAM-1 (0.25 μg/ml in HBSS/PBS+5% FBS) were added and incubated for 30–60 minutes at 37° C. Cells were washed with HBSS/PBS three times, and secondary antibody Horse Radish Peroxidase (HRP)-conjugated goat anti-mouse IgG (1:500 in HBSS/PBS+5% FBS) were added and incubated for 30 minutes at 37° C. Cells were washed with HBSS/PBS four time and TMB substrate were added and incubated at room temperature in the dark until there was adequate development of blue color. The length of time of incubation was typically 5–15 minutes. 2N sulfuric acid was added to stop the color development and the data was collected by reading the absorbance on a BioRad ELISA plate reader at OD 450 nm. The results are expressed as IC50 values (the concentration (micromolar) of compound required to inhibit 50% of the maximal response of the control sample stimulated by TNF-α only). IC50's of tested compounds are tabulated in Biological Table 1.

[2] = tested on: TNF-α; test: Cytokine screening: LPS-induced secretion of TNF-α from hPBMCs; format: cell-based; conditions: Homo sapiens, Biological Table 3; LPS-induced secretion from hPBMN cells; average of at least three determinations
Description: Fresh cryopreserved hPBMCs (1 million cells/ml; Clonetics, Inc.) were pretreated with test compound for 1 hr in lymphocyte growth media-3 (Clonetics, Inc.), followed by stimulation with 1 μg/ml of LPS for another 2 hr in the presence of test compound. Conditioned media was collected and assayed for secreted TNF-α, IL-1β and […] using commercially available human ELISA kits (R&D Systems). Samples were measured in duplicate and data presented as mean ± standard deviation. Each experiment was repeated at least three times with similar results.

[3] = tested on: Balb/C mice; test: In vivo asthma model (ovalbumin-sensitized mice, BAL fluid eosinophilia); conditions: 25 mg/kg, sc, qd; BALF eosinophilia vs vehicle control
Description: Balb/C mice (6–8 weeks old) were sensitized to ovalbumin (ova) (8 ug ova absorbed in 3.3 mg Alum inject) on days 0 and 5. On day 12, the mice were aerosol challenged with 0.5% ovalbumin dissolved in sterile saline for 1 hr in the AM, and then again in the PM (at least 4 hr apart). On day 14, the mice were anesthetized with ketamine/xylazine/acepromazine cocktail, exsanguinated, and then euthanized. Following blood collection, bronchoaveolar lavage (BAL) was performed on each animal. Total cell counts were conducted on the lavage fluid, which was subsequently diluted with cell media 1:1. Slides of the lavage fluid were made by spinning the samples with a cytospin centrifuge and then air drying. Cell differentials of the lavage fluid were determined by microscopic evaluation of hematoxylin and eosin-stained slides. Data are expressed as the % inhibition of eosinophilia in the BAL fluid compared to the vehicle control. […] The formulations used contained various mixtures of the following excipients (propylene glycol, polyethylene glycol, Tween 80, Glycofurol).

[4] = tested on: Female Lewis rats; test: In vivo rheumatoid arthritis model (Freund's complete adjuvant, paw swelling); conditions: paw swelling vs vehicle control
Description: Female Lewis rats (200–250 g) were sensitized with Freund's complete adjuvant (100 ug) by subcutaneous injection at the base of the tail. Paw swelling was monitored by measuring the volume of each foot with a plethysmometer on days 5, 8, 12–15. Animals were euthanized on day 15. […] Data is expressed as the % inhibition of paw swelling (AUC of the paw volume vs time curve d5–15) compared with vehicle control. The formulations used contained various mixtures of the following excipients (propylene glycol, polyethylene glycol, Tween 80, Glycofurol).

[5] = tested on: VCAM-1; test: In Vitro VCAM-1 Assay - Method 2 (19 h predosing, 4 h TNFα stimulation, surface VCAM-1); format: cell-based; conditions: Homo sapiens; HAEC or HPAEC, predosed 19 hours, TNFα 1.5 ng/ml 4 hours
Description: Cultured primary human aortic (HAEC) or pulmonary artery (HPAEC) endothelial cells are obtained from BioWhittaker (formerly Clonetics), and are used below passage 9. Cells are seeded in 96-well plates such that they will reach ˜95% confluency by the following day (i.e.10,000 cells/well). Compounds are reconstituted in DMSO (100%) and sonicated to ensure maximum dissolution. Dilutions are then made in DMSO to 500× of final concentrations. These stocks are then diluted 500× into cell culture media (EGM-2 Mv, BioWhittaker) and placed overnight in tissue culture incubator (37° C., 5% CO2) to allow maximum dissolution).
Media is removed from the cells and replaced with the prewarmed dosing media. Cells are predosed in this manner for 19 hours at 37° C., 5% CO2. Remove media again from the cells and replace with prepared dosing media containing TNFα (1.5 ng/ml). Allow stimulation to continue for 4 hours at 37° C., 5% CO2. Media is removed and saved for evaluation of secreted factors as needed. Cells are used for quantitating surface VCAM-1, followed by Hoescht nuclear stain for cell number to determine toxicity. Assay for surface VCAM-1 continues as described in Method 1. IC50's of tested compounds are tabulated in Biological Table 1.

Structure (SMILES)	pIC50 [1]	melting point [°C]	pIC50 [2]	pIC50 [5]	Inhibition of BAL fluid eosinophilia (asthma model) [3] [percentage]	Rheumatoid arthritis model (25 mg/kg, sc, qd, inhibition of paw swelling in percentage) [4] [percentage]
CC(C)(Sc1cc(C(C)(C)C)c(O)c(C(C)(C)C)c1)Sc1cc(C(C)(C)C)c(OCC(=O)NCC(=O)O)c(C(C)(C)C)c1 [Ex-3, (2-{2,6-Di-tert-butyl-4-[1-(3,5-di-tert-butyl-4-hydroxyphenylsulfanyl)-1-methylethylsulfanyl]phenoxy}acetylamino)acetic acid]	5.22	–	–	–	–	–
CN(CC(=O)O)C(=O)COc1c(C(C)(C)C)cc(SC(C)(C)Sc2cc(C(C)(C)C)c(O)c(C(C)(C)C)c2)cc1C(C)(C)C [Ex-4, [(2-{2,6-Di-tert-butyl-4-[1-(3,5-di-tert-butyl-4-hydroxyphenylsulfanyl)-1-methylethylsulfanyl]phenoxy}acetyl)methylamino]acetic acid]	5.15	115 to 119	–	–	–	–
CC(C)(Sc1cc(C(C)(C)C)c(O)c(C(C)(C)C)c1)Sc1cc(C(C)(C)C)c(OCC(=O)NCCC(=O)O)c(C(C)(C)C)c1 [Ex-5, 3-(2-{2,6-Di-tert-butyl-4-[1-(3,5-di-tert-butyl-4-hydroxyphenylsulfanyl)-1-methylethylsulfanyl]phenoxy}acetylamino)propionic acid]	5.22	–	–	–	–	–
CC(C)(Sc1cc(C(C)(C)C)c(O)c(C(C)(C)C)c1)Sc1cc(C(C)(C)C)c(OCC(=O)NC(CO)CO)c(C(C)(C)C)c1 [Ex-6, 2-{2,6-Di-tert-butyl-4-[1-(3,5-di-tert-butyl-4-hydroxyphenylsulfanyl)-1-methyl-ethylsulfanyl]phenoxy}-N-(2-hydroxy-1-hydroxymethyl-ethyl)acetamide]	5.22	163 to 164	–	–	–	–
CC(C)(Sc1cc(C(C)(C)C)c(O)c(C(C)(C)C)c1)Sc1cc(C(C)(C)C)c(OCC[C@H](O)CO)c(C(C)(C)C)c1 [Ex-10, 4-{2,6-Di-tert-butyl-4-[1-(3,5-di-tert-butyl-4-hydroxy-phenylsulfanyl)-1-methyl-ethylsulfanyl]-phenoxy}-butane-1,2(S)-diol]	4.40	110 to 112	5.42	5.10	78	85
CC(C)(Sc1cc(C(C)(C)C)c(O)c(C(C)(C)C)c1)Sc1cc(C(C)(C)C)c(OCC[C@@H](O)CO)c(C(C)(C)C)c1 [Ex-11, 4-{2,6-Di-tert-butyl-4-[1-(3,5-di-tert-butyl-4-hydroxy-phenylsulfanyl)-1-methyl-ethylsulfanyl]-phenoxy}-butane-1,2(R)-diol]	< 4.30	–	5.36	5.15	95	85
CC(C)(Sc1cc(C(C)(C)C)c(O)c(C(C)(C)C)c1)Sc1cc(C(C)(C)C)c(OCCC[C@H](O)CO)c(C(C)(C)C)c1 [Ex-13, 5-{2,6-Di-tert-butyl-4-[1-(3,5-di-tert-butyl-4-hydroxy-phenylsulfanyl)-1-methyl-ethylsulfanyl]-phenoxy}-pentane-1,2(S)-diol]	–	68 to 71	–	4.96	60	–

The next lines start with results.

pIC50 [1]	melting point [°C]	pIC50 [2]	pIC50 [5]	Structure (SMILES)	Inhibition of BAL fluid eosinophilia (asthma model) [3] [percentage]	Rheumatoid arthritis model (25 mg/kg, sc, qd, inhibition of paw swelling in percentage) [4] [percentage]
4.68	75 to 77	–	5.04	CC(C)(Sc1cc(C(C)(C)C)c(O)c(C(C)(C)C)c1)Sc1cc(C(C)(C)C)c(OCCC(O)C(O)CCO)c(C(C)(C)C)c1 (stereo not drawn) [Ex-14, 6-{2,6-Di-tert-butyl-4-[1-(3,5-di-tert-butyl-4-hydroxy-phenylsulfanyl)-1-methyl-ethylsulfanyl]-phenoxy}-hexane-1,3,4-triol]	84	–
–	62 to 64	–	–	COC[C@H](O)[C@@H](O)COc1c(C(C)(C)C)cc(SC(C)(C)Sc2cc(C(C)(C)C)c(O)c(C(C)(C)C)c2)cc1C(C)(C)C [Ex-15, 1-{2,6-Di-tert-butyl-4-[1-(3,5-di-tert-butyl-4-hydroxyphenylsulfanyl)-1-methylethylsulfanyl]phenoxy}-4-methoxybutane-2(S),3(S)-diol]	–	–
–	68 to 70	–	–	COC[C@@H](O)[C@H](O)COc1c(C(C)(C)C)cc(SC(C)(C)Sc2cc(C(C)(C)C)c(O)c(C(C)(C)C)c2)cc1C(C)(C)C [Ex-16, 1-{2,6-Di-tert-butyl-4-[1-(3,5-di-tert-butyl-4-hydroxyphenylsulfanyl)-1-methylethylsulfanyl]phenoxy}-4-methoxybutane-2(R),3(R)-diol]	44	63
4.89	–	5.35	5.22	CC(C)(Sc1cc(C(C)(C)C)c(O)c(C(C)(C)C)c1)Sc1cc(C(C)(C)C)c(OCC(CO)CO)c(C(C)(C)C)c1 [Ex-18, 2-{2,6-Di-tert-butyl-4-[1-(3,5-di-tert-butyl-4-hydroxyphenylsulfanyl)-1-methylethyl-sulfanyl]phenoxymethyl}propane-1,3-diol]	60	83
< 4.30	–	–	–	COCCOCCOCCOc1c(C(C)(C)C)cc(SC(C)(C)Sc2cc(C(C)(C)C)c(O)c(C(C)(C)C)c2)cc1C(C)(C)C [Ex-19, 2,6-Di-tert-butyl-4-[1-(3,5-di-tert-butyl-4-{2-[2-(2-methoxyethoxy)-ethoxy]ethoxy}-phenyl-sulfanyl)-1-methylethylsulfanyl]phenol]	–	–
–	60 to 62	–	–	CCOC1O[C@H](CO)[C@@H](COc2c(C(C)(C)C)cc(SC(C)(C)Sc3cc(C(C)(C)C)c(O)c(C(C)(C)C)c3)cc2C(C)(C)C)O1 (stereo partly drawn) [compound 9, 2,6-Di-tert-butyl-4-{1-[3,5-di-tert-butyl-4-(2-ethoxy-5(R)-hydroxymethyl-[1,3]dioxolan-4(R)-ylmethoxy)-phenylsulfanyl]-1-methyl-ethylsulfanyl}-phenol]	–	–
–	146 to 147	–	–	CC(C)(Sc1cc(C(C)(C)C)c(O)c(C(C)(C)C)c1)Sc1cc(C(C)(C)C)c(OCCO)c(C(C)(C)C)c1 [compound 17, 2,6-Di-tert-butyl-4-{1-[3,5-di-tert-butyl-4-(2-hydroxy-ethoxy)-phenylsulfanyl]-1-methyl-ethylsulfanyl}-phenol]	–	–
